Test results published in PMC3499409, “Direct Interaction between EgFABP1, a Fatty Acid Binding Protein from Echinococcus granulosus, and Phospholipid Membranes” (PLoS Neglected Tropical Diseases, 2012).

What was measured:
Assay type in all cases: binding
[1] = biological target: T1, EgFABP1 (Echinococcus granulosus, UniProt Q02970); test: near-UV CD change; protection from limited proteolysis (clostripain); GC of co-purified fatty acids
T1 construct: gene FABP1; recombinant EgFABP1 from pET11b in E. coli
T1 sequence (Q02970 1-133): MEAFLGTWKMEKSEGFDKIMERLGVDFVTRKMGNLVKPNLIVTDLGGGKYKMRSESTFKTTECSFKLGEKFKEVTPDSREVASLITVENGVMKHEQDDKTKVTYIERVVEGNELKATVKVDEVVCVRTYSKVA

[2] = biological target: T2, EgFABP1 (Echinococcus granulosus, UniProt Q02970); test: fluorescence titration of the anthroyloxy fatty acid with protein
T2 construct: gene FABP1; recombinant EgFABP1 from pET11b in E. coli, delipidated

[3] = biological target: T1, EgFABP1; test: protection from limited proteolysis (clostripain); GC of co-purified fatty acids

`CCCCCCCC/C=C\CCCCCCCC(=O)O` [oleic acid] was tested, and the “near-UV CD change; protection from limited proteolysis (clostripain); GC of co-p” value [1] was “the near-UV CD spectra (Figure S1) showed differences upon ligand binding, especially with oleic acid”.

Compound `CCCCCCC(CCCCCCCCCCC(=O)O)OC(=O)c1c2ccccc2cc2ccccc12` (stereo not shown) [12AS, 12-(9-anthroyloxy)stearic acid] has a Kd [2] of 120 ± 20 nM.

In the case of `CCCCCCCCCCCCCC(=O)O` [myristic acid], the “protection from limited proteolysis (clostripain); GC of co-purified fatty acids” value [3] is reported as “Results show that binding of FAs gives EgFABP1 significant relative protection against cleavage”.

Compound `O=C(O)CCCCCCCCCCCCCCCOC(=O)c1c2ccccc2cc2ccccc12` [16AP, 16-(9-anthroyloxy)palmitic acid] has a Kd [2] of 13 ± 6 nM.
